Experimental data taken from US9802954B2, “Piperidino-dihydrothienopyrimidine sulfoxides and their use for treating COPD and asthma” (Boehringer Ingelheim International GmbH, priority 2011, dated 2017).
“Also recorded” adds a separate entry of the source.

Experiments:
conscious rats = test: Gastric emptying and gastrointestinal transit in conscious rats (barium sulfate test meal); assay type: in vivo, rat; details: Wistar rats, p.o. 30 min before test meal; for gastric emptying compared to negative control / intestinal transit compared to negative control: all tested doses up to the 30-fold ED50 dose
Procedure: In order to evaluate whether the compounds of the present invention lead to gastrointestinal side effects the compounds of the invention have been administered to rats 30 minutes before the rats were fed with a test meal comprising barium sulfate. After that it was tested whether gastric emptying and/or gastrointestinal transit in these rats was affected by the presence of these compounds.
The effects of the compounds Example 1 and Example 2 on gastric emptying and gastrointestinal transit in conscious rats has been investigated as described below.
Wistar rats of both sexes weighing 130-160 g (ages: male 7 wk, female 8 wk) were used. The animals are obtained from an approved local distributor, a minimum of four days quarantine is required before use, during which time the animals are maintained under routine animal care procedures. Groups of up to 5 animals are housed in cages in a room with controlled temperature and humidity and a light/dark cycle with the lights on from 6 a.m. to 6 p.m. The animals have access to normal rodent chow and water ad libitum. The animals are transported to the laboratory on the day of experimentation.
Gastric emptying as well as small intestinal propulsion are determined using a barium sulfate test meal.
Five rats Crl:WI(Han) of each sex (n=10) were used. The animals were deprived of food 17 h prior to the experiment but allowed free access to water. The drug under investigation (drug was suspended to the concentration of 10 ml/kg body weight in 0.5% Natrosol solution) or the negative control (vehicle alone was given 10 ml/kg body weight) was administered 30 min. (p.o.) before the test meal at doses calculated to be 3-fold, 10-fold or 30-fold the ED50 found in efficacy studies in the rat.
The test meal (suspension of 7.5 g barium sulfate in 10 ml salt-free water) is given orally by gavage at a dose of 2 ml/100 g body weight. Thirty minutes after the administration of the test meal the animals were killed in deep isoflurane anaesthesia by cervical dislocation. The stomach and the intestine were then exposed by laparatomy and removed.
The removed stomach was weighed, then incised, the contents removed and the empty stomach is weighed again.
The length of gut traversed with barium sulfate in relation to the whole length of the gut is determined by direct measurements using a ruler.
The gastric content was calculated from the weight difference between the filled and empty stomach and normalized to 100 g body weight. Thus, an increase in weight difference indicated an impaired gastric emptying, whereas a decrease in weight difference indicated an enhanced gastric emptying.
The length of gut traversed with barium sulphate (as judged by visual inspection) in relation to the whole length of the gut (from the pylorus to the rectum) is determined by direct measurements using a ruler.
Intestinal transit is calculated as the percentage movement of barium sulphate in the intestine in relation to the whole length of the gut. Consequently an increased intestinal transit length indicated an accelerated intestinal transit whereas a decreased intestinal transit length indicated decelerated intestinal transit.
Data are expressed as mean±standard deviation (SD). For each dose, comparisons were performed using an analysis of variance (ANOVA) and a post hoc Dunnett test to compare the various groups to the controls when the ANOVA was significant. p<0.05 was considered significant.

[1] = tested on: LPS-induced neutrophil influx into bronchoalveolar lavage fluid of male Wistar rats; test: LPS-induced lung inflammation model: inhibition of LPS-induced neutrophil influx into bronchoalveolar lavage fluid; assay type: in vivo, rat; details: oral by gavage, BALF 4 hours after end of LPS exposure
Procedure: The anti-inflammatory activity of Examples 1 and 2 and of Prior art compounds A and D was assessed in an in vivo LPS-induced lung inflammation model in rats.
As a measure of the pharmacological potency of the above mentioned compounds the half-maximal effective dose (ED50) in regard to the inhibition of lipopolysaccharide-induced (LPS-induced) neutrophil influx into the bronchoalveolar lavage fluid (BALF) was determined by assessing the dose response relationship. Bacterial endotoxins (lipopolysaccharides [LPS]) are components of the outer bacterial cell membrane which play an important role in the pathogenesis of infections with gram-negative bacteria. It is known that inhalation of such aerosolized LPS induces a dose-dependent increase in neutrophils to lung tissues and airspaces in rats which may be detected by analyzing the amount of neutrophils in the bronchoalveolar lavage fluid (BALF). […]
Determination of neutrophil content of the BALF was performed using an ADVIA 120 blood hemacytometer (Bayer Diagnostics). Neutrophil data were normalised (Positive Control (=LPS treatment alone)=100%, Negative Control (no LPS treatment, administration of “vehicle only”)=0%) and expressed as percent of LPS control. The ED50 was calculated using a nonlinear fit (with the Graph Pad Prism software and a sigmoidal dose response fit). […]

| intestinal transit compared to negative control (conscious rats) | Compound | gastric emptying (weight difference per body weight) compared to negative control (conscious rats; 3-fold ED50 dose) | gastric emptying (weight difference per body weight) compared to negative control (conscious rats; 10-fold ED50 dose) | gastric emptying (weight difference per body weight) compared to negative control (conscious rats; 30-fold ED50 dose) | gastric emptying compared to negative control (conscious rats) | ED50 (inhibition of LPS-induced neutrophil influx into BALF) [1] [mg/kg body weight] |
| --- | --- | --- | --- | --- | --- | --- |
| no significant differences | [O-][S+]1CCc2nc(N3CCC(c4ccc(Cl)cc4)CC3)nc(NC3(CO)CCC3)c21 (single isomer, unassigned) [Example 1] | no relevant differences | no relevant differences | only a very moderate enhancement of the weight difference per body weight | neither showed a substantially enhanced or impaired gastric emptying |  |
|  | [O-][S+]1CCc2nc(N3CCC(c4cccc(Cl)c4)CC3)nc(NC3(CO)CC3)c21 (stereo not drawn) [Prior art compound D] |  |  |  |  | 6.66 |
|  | [O-][S+]1CCc2nc(N3CCC(c4ccc(Cl)cc4)CC3)nc(NC3(CO)CC3)c21 (stereo not drawn) [Prior art compound A] |  |  |  |  | 1.13 |
| no relevant differences | [O-][S+]1CCc2nc(N3CCC(c4ncc(Cl)cn4)CC3)nc(NC3(CO)CCC3)c21 (single isomer, unassigned) [Example 2] |  |  |  | neither showed a substantially enhanced or impaired gastric emptying; also recorded: no relevant differences |  |
